Reference: ChEMBL document CHEMBL2346512, “Inhibitory effect of 4,4'-dihydroxy-α-truxillic acid derivatives on NO production in lipopolysaccharide-induced RAW 264.7 macrophages and exploration of structure-activity relationships” (Bioorg Med Chem Lett, 2013)

Tests used:
[1] = Cytotoxicity against mouse RAW264.7 cells assessed as cell viability at 25 uM after 18 hrs by CCK-8 assay; format: cell-based; settings: read-out: Activity
[2] = tested on: RAW264.7; assay: Inhibition of LPS-induced NO production in mouse RAW264.7 cells at 25 uM pretreated for 20 mins before LPS challenge measured after 18 hrs post LPS challenge by spectrophotometry; format: functional
[3] = tested on: RAW264.7; assay: Cytotoxicity against mouse RAW264.7 cells assessed as cell viability up to 50 uM after 18 hrs by CCK-8 assay; format: cell-based; settings: raw264.7, 18 h
[4] = tested on: RAW264.7; assay: Cytotoxicity against mouse RAW264.7 cells assessed as cell viability after 18 hrs by CCK-8 assay; format: cell-based; settings: RAW264.7, 18 h
[5] = tested on: RAW264.7; assay: Inhibition of LPS-induced NO production in mouse RAW264.7 cells pretreated for 20 mins before LPS challenge measured after 18 hrs post LPS challenge by spectrophotometry; format: functional, cell-based
[6] = tested on: RAW264.7; assay: Inhibition of LPS-induced NO production in mouse RAW264.7 cells at 12.5 uM pretreated for 20 mins before LPS challenge measured after 18 hrs post LPS challenge by spectrophotometry; format: functional
[7] = tested on: RAW264.7; assay: Inhibition of LPS-induced NO production in mouse RAW264.7 cells at 100 uM pretreated for 20 mins before LPS challenge measured after 18 hrs post LPS challenge by spectrophotometry; format: functional
[8] = tested on: RAW264.7; assay: Inhibition of LPS-induced NO production in mouse RAW264.7 cells at 50 uM pretreated for 20 mins before LPS challenge measured after 18 hrs post LPS challenge by spectrophotometry; format: functional

| Compound | viability at 18 h, 25 µM [1] [%] | inhibition at 25 µM [2] [%] | further results |
| --- | --- | --- | --- |
| O=C(OCC1CCCO1)[C@H]1[C@H](c2ccc(O)cc2)[C@H](C(=O)OCC2CCCO2)[C@H]1c1ccc(O)cc1 (stereo not given in full) | 96 | 10.2 | – |
| CC(C)[C@@H]1CC[C@@H](C)C[C@H]1OC(=O)[C@H]1[C@H](c2ccc(O)cc2)[C@H](C(=O)O[C@@H]2C[C@H](C)CC[C@H]2C(C)C)[C@H]1c1ccc(O)cc1 | 98 | 72 | Activity [3]: Non-toxic; IC50 [4]: 60.3 µM; IC50 [5]: 17.5 µM |
| O=C(OCC12CC3CC(CC(C3)C1)C2)[C@H]1[C@H](c2ccc(O)cc2)[C@H](C(=O)OCC23CC4CC(CC(C4)C2)C3)[C@H]1c1ccc(O)cc1 | 98 | 27.8 | – |
| CCOCCOCCOCCOC(=O)[C@H]1[C@H](c2ccc(O)cc2)[C@H](C(=O)OCCOCCOCCOCC)[C@H]1c1ccc(O)cc1 | 100 | 15.7 | – |
| O=C(OC1CCCC1)[C@H]1[C@H](c2ccc(O)cc2)[C@H](C(=O)OC2CCCC2)[C@H]1c1ccc(O)cc1 | 58 | 62.1 | IC50 [4]: 31.2 µM; IC50 [5]: 21.1 µM |
| O=C(OC1CCC1)[C@H]1[C@H](c2ccc(O)cc2)[C@H](C(=O)OC2CCC2)[C@H]1c1ccc(O)cc1 | 62.6 | 55 | IC50 [4]: 32.3 µM; IC50 [5]: 19.8 µM |
| CCC[C@H]1CC[C@H]([C@H]2CC[C@H](OC(=O)[C@H]3[C@H](c4ccc(O)cc4)[C@H](C(=O)O[C@H]4CC[C@H]([C@H]5CC[C@H](CCC)CC5)CC4)[C@H]3c3ccc(O)cc3)CC2)CC1 | 100 | 0 | – |
| CC(C)OCCOC(=O)[C@H]1[C@H](c2ccc(O)cc2)[C@H](C(=O)OCCOC(C)C)[C@H]1c1ccc(O)cc1 | 100 | 22 | – |
| COCCOCCOC(=O)[C@H]1[C@H](c2ccc(O)cc2)[C@H](C(=O)OCCOCCOC)[C@H]1c1ccc(O)cc1 | 100 | 21.9 | – |
| O=C(OC1CCCCCC1)[C@H]1[C@H](c2ccc(O)cc2)[C@H](C(=O)OC2CCCCCC2)[C@H]1c1ccc(O)cc1 | 100 | 16 | – |
| CCC/C=C/COC(=O)[C@H]1[C@H](c2ccc(O)cc2)[C@H](C(=O)OC/C=C/CCC)[C@H]1c1ccc(O)cc1 | 40 | 72.3 | IC50 [4]: 19.3 µM; IC50 [5]: 17.6 µM |
| O=C(OCCF)[C@H]1[C@H](c2ccc(O)cc2)[C@H](C(=O)OCCF)[C@H]1c1ccc(O)cc1 | 100 | 13 | – |
| O=C(O)/C=C/c1ccc(O)cc1 [COUMARIC ACID] | – | 0 | inhibition at 12.5 µM [6]: 0%; inhibition at 100 µM [7]: 13.2%; inhibition at 50 µM [8]: 6.5% |
| N=C(N)NN [PIMAGEDINE] | – | 56 | inhibition at 50 µM [8]: 71%; IC50 [5]: 18.7 µM |
| CCC[C@H]1CC[C@H]([C@H]2CC[C@@H](OC(=O)[C@H]3[C@H](c4ccc(O)cc4)[C@H](C(=O)O[C@H]4CC[C@@H]([C@H]5CC[C@H](CCC)CC5)CC4)[C@H]3c3ccc(O)cc3)CC2)CC1 | 100 | 0 | – |
| CC(C)(C)C1CCC(OC(=O)[C@H]2[C@H](c3ccc(O)cc3)[C@H](C(=O)OC3CCC(C(C)(C)C)CC3)[C@H]2c2ccc(O)cc2)CC1 (stereo not given in full) | 100 | 0 | – |
| C#CCOCCOC(=O)[C@H]1[C@H](c2ccc(O)cc2)[C@H](C(=O)OCCOCC#C)[C@H]1c1ccc(O)cc1 | 100 | 13.5 | – |
| C#CCCOC(=O)[C@H]1[C@H](c2ccc(O)cc2)[C@H](C(=O)OCCC#C)[C@H]1c1ccc(O)cc1 | 100 | 28.3 | – |
| O=C(OC1CCCCC1)[C@H]1[C@H](c2ccc(O)cc2)[C@H](C(=O)OC2CCCCC2)[C@H]1c1ccc(O)cc1 | 67.8 | 76 | IC50 [4]: 33 µM; IC50 [5]: 16.4 µM |

| Compound | viability at 18 h, 25 µM [1] [%] | inhibition at 25 µM [2] [%] | further results |
| --- | --- | --- | --- |
| O=C(OC(C(F)(F)F)C(F)(F)F)[C@H]1[C@H](c2ccc(O)cc2)[C@H](C(=O)OC(C(F)(F)F)C(F)(F)F)[C@H]1c1ccc(O)cc1 | 32.6 | 55 | IC50 [4]: 17.6 µM; IC50 [5]: 22.6 µM |
| O=C(OCC(F)(F)C(F)F)[C@H]1[C@H](c2ccc(O)cc2)[C@H](C(=O)OCC(F)(F)C(F)F)[C@H]1c1ccc(O)cc1 | 100 | 15.7 | – |
| O=C(OC1CCOCC1)[C@H]1[C@H](c2ccc(O)cc2)[C@H](C(=O)OC2CCOCC2)[C@H]1c1ccc(O)cc1 | 100 | 18 | – |
| COCCOCCOCCOC(=O)[C@H]1[C@H](c2ccc(O)cc2)[C@H](C(=O)OCCOCCOCCOC)[C@H]1c1ccc(O)cc1 | 100 | 11.9 | – |
| CC(C)[C@H]1CC[C@H](C)C[C@@H]1OC(=O)[C@H]1[C@H](c2ccc(O)cc2)[C@H](C(=O)O[C@H]2C[C@@H](C)CC[C@@H]2C(C)C)[C@H]1c1ccc(O)cc1 | 90 | 17.4 | – |
| CC(C)(C)[Si](C)(C)Oc1ccc(/C=C/C(=O)O)cc1 | – | 0 | inhibition at 12.5 µM [6]: 0%; inhibition at 100 µM [7]: 6.5%; inhibition at 50 µM [8]: 2.2% |
| O=C(OCCI)[C@H]1[C@H](c2ccc(O)cc2)[C@H](C(=O)OCCI)[C@H]1c1ccc(O)cc1 | 98 | 49.9 | – |
| C=C(C)COC(=O)[C@H]1[C@H](c2ccc(O)cc2)[C@H](C(=O)OCC(=C)C)[C@H]1c1ccc(O)cc1 | 100 | 27.9 | – |
| CCCOCCOC(=O)[C@H]1[C@H](c2ccc(O)cc2)[C@H](C(=O)OCCOCCC)[C@H]1c1ccc(O)cc1 | 100 | 23.6 | – |
| O=C(OCCC1CCCCC1)[C@H]1[C@H](c2ccc(O)cc2)[C@H](C(=O)OCCC2CCCCC2)[C@H]1c1ccc(O)cc1 | 100 | 19.1 | – |
| CCCCOCCOC(=O)[C@H]1[C@H](c2ccc(O)cc2)[C@H](C(=O)OCCOCCCC)[C@H]1c1ccc(O)cc1 | 95 | 45.8 | IC50 [4]: 44.5 µM; IC50 [5]: 32.6 µM |
| CSCCOC(=O)[C@H]1[C@H](c2ccc(O)cc2)[C@H](C(=O)OCCSC)[C@H]1c1ccc(O)cc1 | 100 | 24.4 | – |
| C=C(C)C1CC=C(COC(=O)[C@H]2[C@H](c3ccc(O)cc3)[C@H](C(=O)OCC3=CCC(C(=C)C)CC3)[C@H]2c2ccc(O)cc2)CC1 (stereo not given in full) | 78 | 36.1 | – |
| O=C(OCC(F)(F)F)[C@H]1[C@H](c2ccc(O)cc2)[C@H](C(=O)OCC(F)(F)F)[C@H]1c1ccc(O)cc1 | 78 | 65.3 | IC50 [4]: 38.5 µM; IC50 [5]: 20.8 µM |
| CC(C)=CCC/C(C)=C\COC(=O)[C@H]1[C@H](c2ccc(O)cc2)[C@H](C(=O)OC/C=C(/C)CCC=C(C)C)[C@H]1c1ccc(O)cc1 | 56 | 42.6 | – |
| O=C(OCC1CCCCC1)[C@H]1[C@H](c2ccc(O)cc2)[C@H](C(=O)OCC2CCCCC2)[C@H]1c1ccc(O)cc1 | 37 | 46.9 | IC50 [4]: 17.9 µM; IC50 [5]: 29.1 µM |
| O=C(OCC1CC1)[C@H]1[C@H](c2ccc(O)cc2)[C@H](C(=O)OCC2CC2)[C@H]1c1ccc(O)cc1 | 95 | 33.9 | – |
| CC(C)=CCC/C(C)=C/COC(=O)[C@H]1[C@H](c2ccc(O)cc2)[C@H](C(=O)OC/C=C(\C)CCC=C(C)C)[C@H]1c1ccc(O)cc1 | 80 | 33.9 | – |
| O=C(O)[C@H]1[C@H](c2ccc(O)cc2)[C@H](C(=O)O)[C@H]1c1ccc(O)cc1 | 100 | 5.5 | – |
